Assay results published in article PMC8396878, “Ether Oxidation by an Evolved Fungal Heme-Peroxygenase: Insights into Substrate Recognition and Reactivity” (Journal of Fungi, 2021).

Legend:
Assay type in all cases: biochemical
[1] = target: T1, unspecific peroxygenase (UPO) PaDa-I (Cyclocybe aegerita, UniProt B9W4V6, F354L/I291V/L110F/V100A/V118I); test: inhibition of catalase activity (O2 production, Clark electrode); substrate consumption by HPLC
T1 construct: gene APO1; laboratory-evolved variant PaDa-I, heterologously expressed and purified
T1 sequence (B9W4V6 44-371 V100A/L110F/V118I/I291V/F354L): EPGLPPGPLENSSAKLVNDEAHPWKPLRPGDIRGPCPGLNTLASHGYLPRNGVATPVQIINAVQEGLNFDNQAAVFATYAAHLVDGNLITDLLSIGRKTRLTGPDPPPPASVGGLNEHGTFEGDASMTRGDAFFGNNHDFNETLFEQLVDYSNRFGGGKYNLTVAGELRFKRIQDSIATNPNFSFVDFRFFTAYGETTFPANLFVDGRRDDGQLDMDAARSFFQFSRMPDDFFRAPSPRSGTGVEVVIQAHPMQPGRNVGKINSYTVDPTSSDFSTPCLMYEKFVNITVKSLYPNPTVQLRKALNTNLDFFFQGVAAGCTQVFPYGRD

[2] = target: T2, unspecific peroxygenase (UPO) PaDa-I (Cyclocybe aegerita, UniProt B9W4V6, V100A/L110F/V118I/I291V/F354L); test: H2O2-dependent ether oxidation, total turnover number by HPLC
T2 construct: gene APO1; laboratory-evolved variant PaDa-I, heterologously expressed and purified
T2 sequence (B9W4V6 44-371 V100A/L110F/V118I/I291V/F354L): T1 sequence (B9W4V6 44-371 V100A/L110F/V118I/I291V/F354L)

[3] = target: T1, unspecific peroxygenase (UPO) PaDa-I; test: inhibition of NBD peroxygenation (Michaelis-Menten kinetics); also uncompetitive inhibition of ABTS peroxidation
[4] = target: T2, unspecific peroxygenase (UPO) PaDa-I; test: colorimetric peroxygenation assay (4-nitrocatechol production), Michaelis-Menten plot

## OCCOCc1ccccc1 [2-(benzyloxy)ethanol]
[1]
  Ki: 390 µM

## c1ccc(COCc2ccccc2)cc1 [dibenzylether]
[2]
  H2O2-dependent ether oxidation, total turnover number by HPLC: the more hydrophobic substrate (dibenzylether) was the most efficiently converted

## O=C(O)COCc1ccccc1 [benzyloxyacetate]
[3]
  Ki: 3450 µM

## O=[N+]([O-])c1ccc2c(c1)OCO2 [NBD, 5-nitro-1,3-benzodioxole]
[4]
  colorimetric peroxygenation assay (4-nitrocatechol production), Michaelis-Menten: Michaelis–Menten plots for (A) NBD peroxygenation and (B) ABTS peroxidation in the presence of benzyloxyacetate
